This assay deals with BDF1 mice, B16 melanoma ip, median survival T/C. The experiment in a line: NCI In Vivo Anticancer Drug Screen. Data for tumor model B16 Melanoma (intraperitoneal) in B6D2F1 (BDF1) mice. The settings on record: endpoint: median survival time, higher = longer survival. The essentials: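 Vehicle-treated animals serve as the reference (C); treated animals (T) are scored for survival or tumor size after tumor transplantation.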

[1] abbreviates: dose: 100.0 mg/kg/injection, schedule: Q01DX009 (ip), vehicle: Klucel (hydroxypropylcellulose) (HPC).
The mark [2] stands for this setting: dose: 200.0 mg/kg/injection, schedule: Q01DX009 (ip), vehicle: Klucel (hydroxypropylcellulose) (HPC).
Setting [3] is: dose: 400.0 mg/kg/injection, schedule: Q01DX009 (ip), vehicle: Klucel (hydroxypropylcellulose) (HPC).
Setting [4] is: dose: 6.25 mg/kg/injection, schedule: Q01DX009 (ip), vehicle: saline with Tween-80.
[5] abbreviates: dose: 12.5 mg/kg/injection, schedule: Q01DX009 (ip), vehicle: saline with Tween-80.
[6] abbreviates: dose: 25.0 mg/kg/injection, schedule: Q01DX009 (ip), vehicle: Klucel (hydroxypropylcellulose) (HPC).
The mark [7] stands for this setting: dose: 25.0 mg/kg/injection, schedule: Q01DX009 (ip), vehicle: saline with Tween-80.
The mark [8] stands for this setting: dose: 50.0 mg/kg/injection, schedule: Q01DX009 (ip), vehicle: saline with Tween-80.

Values joined by “and” are separate entries in the source; they are usually repeats but may differ in a detail not shown here. Equal values may be shown once. Toxic doses and inconclusive results are not listed.

For the molecule `CCC(=S)Nc1ccc(Cl)cc1`, the T/C (dose: 25.0 mg/kg/injection, schedule: Q01DX009 (ip), vehicle: carboxymethylcellulose (CMC)) was 100 % of control; the T/C (dose: 50.0 mg/kg/injection, schedule: Q01DX009 (ip), vehicle: carboxymethylcellulose (CMC)) was 107 % of control; the T/C (dose: 100.0 mg/kg/injection, schedule: Q01DX009 (ip), vehicle: carboxymethylcellulose (CMC)) is 103 % of control.
Regarding `CCCCNC=O`, the T/C is 102 % of control (dose: 100.0 mg/kg/injection, schedule: Q01DX009 (ip), vehicle: saline); 102 % of control (dose: 200.0 mg/kg/injection, schedule: Q01DX009 (ip), vehicle: saline); 116 % of control (dose: 400.0 mg/kg/injection, schedule: Q01DX009 (ip), vehicle: saline).
Consider `CC(CC=O)CCCC(C)(C)O` (configuration not stated), for which the T/C by setting is: under setting [1], 101 % of control; under setting [2], 97 % of control.
As for `CCCCCCCCCC(=O)CCCC`, the T/C (dose: 100.0 mg/kg/injection, schedule: Q01DX009 (ip), vehicle: other) was 94 % of control and the T/C (dose: 200.0 mg/kg/injection, schedule: Q01DX009 (ip), vehicle: other) was 92 % of control.
`OCCOCCN1CCN(CCCN2c3ccccc3Sc3ccc(C(F)(F)F)cc32)CC1`: the T/C reads like this: (dose: 0.8 mg/kg/injection, schedule: Q01DX009 (ip), vehicle: saline) 106 % of control; (dose: 1.6 mg/kg/injection, schedule: Q01DX009 (ip), vehicle: saline) 102 % of control; (dose: 3.2 mg/kg/injection, schedule: Q01DX009 (ip), vehicle: saline) 102 % of control; (dose: 6.4 mg/kg/injection, schedule: Q01DX009 (ip), vehicle: saline) 105 % of control; (dose: 3.1 micrograms/kg/injection, schedule: Q01DX009 (ip), vehicle: saline) 108 % of control; (dose: 6.2 micrograms/kg/injection, schedule: Q01DX009 (ip), vehicle: saline) 111 % of control. Further, the T/C (dose: 12.5 micrograms/kg/injection, schedule: Q01DX009 (ip), vehicle: saline) is 123 % of control; the T/C (dose: 25.0 micrograms/kg/injection, schedule: Q01DX009 (ip), vehicle: saline) was 111 % of control; the T/C (dose: 50.0 micrograms/kg/injection, schedule: Q01DX009 (ip), vehicle: saline) is 109 % of control; the T/C (dose: 100.0 micrograms/kg/injection, schedule: Q01DX009 (ip), vehicle: saline) is 110 % of control; the T/C (dose: 200.0 micrograms/kg/injection, schedule: Q01DX009 (ip), vehicle: saline) is 110 % of control; the T/C (dose: 400.0 micrograms/kg/injection, schedule: Q01DX009 (ip), vehicle: saline) is 116 % of control.
Turning to `CCCCCCCC(O)CCCCC` (configuration not stated), the T/C runs as follows: under setting [1], 99 % of control; under setting [2], 103 % of control; under setting [3], 94 % of control.
As for `O=C(N/N=C\c1ccc(N(CCCl)CCCl)cc1)c1cccnc1`, the T/C (dose: 100.0 mg/kg/injection, schedule: Q01DX009 (ip), vehicle: gum acacia) is 91 % of control; the T/C (dose: 200.0 mg/kg/injection, schedule: Q01DX009 (ip), vehicle: gum acacia) was 102 % of control; the T/C (dose: 400.0 mg/kg/injection, schedule: Q01DX009 (ip), vehicle: gum acacia) was 102 % of control.
Regarding `N#CSCc1ccccc1Cl`, the T/C was 89 % of control (dose: 1.56 mg/kg/injection, schedule: Q04DX003 (ip), vehicle: saline); 105 % of control (dose: 3.13 mg/kg/injection, schedule: Q01DX009 (ip), vehicle: saline with Tween-80); 89 % of control (dose: 3.13 mg/kg/injection, schedule: Q04DX003 (ip), vehicle: saline); 105 % of control under setting [4]; 88 % of control (dose: 6.25 mg/kg/injection, schedule: Q04DX003 (ip), vehicle: saline with Tween-80); 86 % of control (dose: 6.25 mg/kg/injection, schedule: Q04DX003 (ip), vehicle: saline). The T/C under setting [5] is 114 % of control.
As for `CC[C@@H]1C[C@H]2CC3c4[nH]c5ccccc5c4CCN(C2)C31`, the T/C (dose: 5.0 mg/kg/injection, schedule: Q01DX009 (ip), vehicle: saline with Tween-80) was 110 % of control; the T/C (dose: 10.0 mg/kg/injection, schedule: Q01DX009 (ip), vehicle: saline with Tween-80) is 107 % of control; the T/C (dose: 20.0 mg/kg/injection, schedule: Q01DX009 (ip), vehicle: saline with Tween-80) was 97 % of control.
As for `CCCCCCCCCCCCCCCCCN`, the T/C (dose: 6.25 mg/kg/injection, schedule: Q01DX009 (ip), vehicle: Klucel (hydroxypropylcellulose) (HPC)) was 103 % of control; the T/C (dose: 12.5 mg/kg/injection, schedule: Q01DX009 (ip), vehicle: Klucel (hydroxypropylcellulose) (HPC)) was 100 % of control; the T/C under setting [6] was 93 % of control.
As to `CC(C)C(Br)C(=O)NCC(=O)O` (configuration not stated), the T/C is 101 % of control under setting [5], 95 % of control under setting [7] and 102 % of control under setting [8].
`COc1cc2c(cc1OC)C1CCN3CCCC3N1CC2` (configuration not stated): the T/C is 105 % of control under setting [6]; 105 % of control (dose: 50.0 mg/kg/injection, schedule: Q01DX009 (ip), vehicle: Klucel (hydroxypropylcellulose) (HPC)); 86 % of control and 100 % of control and 116 % of control under setting [1].
Consider `OCC1OC(n2cnc3c(SCc4ccccc4)ncnc32)C(O)C1O` (configuration not stated), for which the T/C (dose: 37.5 mg/kg/injection, schedule: Q01DX009 (ip), vehicle: saline with Tween-80) is 121 % of control.
In the case of `O=C1OCCN1/N=C/c1ccc([N+](=O)[O-])o1`, the T/C under setting [1] was 100 % of control.
In the case of `NNc1ncnc2nc[nH]c12`, the T/C by setting is: (dose: 12.5 mg/kg/injection, schedule: Q01DX009 (ip), vehicle: saline) 108 % of control; (dose: 25.0 mg/kg/injection, schedule: Q01DX009 (ip), vehicle: saline) 120 % of control; (dose: 50.0 mg/kg/injection, schedule: Q01DX009 (ip), vehicle: saline) 100 % of control.
As for `CCN1CSC(=S)N(CC)C1`, the T/C under setting [5] was 104 % of control; the T/C under setting [7] was 102 % of control; the T/C (dose: 25.0 mg/kg/injection, schedule: Q04DX003 (ip), vehicle: saline with Tween-80) was 89 % of control; the T/C under setting [8] was 97 % of control; the T/C (dose: 50.0 mg/kg/injection, schedule: Q04DX003 (ip), vehicle: saline with Tween-80) was 100 % of control; the T/C (dose: 100.0 mg/kg/injection, schedule: Q01DX009 (ip), vehicle: saline with Tween-80) is 100 % of control. Further, the T/C (dose: 100.0 mg/kg/injection, schedule: Q04DX003 (ip), vehicle: saline with Tween-80) is 92 % of control.
`C[n+]1c2ccccc2cc2ccccc21`: the T/C (dose: 1.56 mg/kg/injection, schedule: Q01DX009 (ip), vehicle: saline with Tween-80) is 97 % of control; the T/C under setting [4] was 90 % of control and 94 % of control.
On to `CCC1(O)CC2CN(CCc3c([nH]c4ccccc34)C(C(=O)OC)(c3cc4c(cc3OC)N(C)C3C(O)(C(=O)NCCSSCCNC(=O)C5(O)C(O)C6(CC)C=CCN7CCC8(c9cc(C%10(C(=O)OC)CC%11CN(CCc%12c%10[nH]c%10ccccc%12%10)CC(O)(CC)C%11)c(OC)cc9N(C)C58)C76)C(O)C5(CC)C=CCN6CCC43C65)C2)C1` (configuration not stated), for which the T/C is 122 % of control (dose: 0.13 mg/kg/injection, schedule: Q04DX003 (ip), vehicle: saline); 184 % of control (dose: 0.64 mg/kg/injection, schedule: Q01DX009 (ip), vehicle: saline); 151 % of control (dose: 1.0 mg/kg/injection, schedule: Q04DX003 (ip), vehicle: saline); 189 % of control (dose: 1.08 mg/kg/injection, schedule: Q01DX009 (ip), vehicle: saline); 158 % of control and 181 % of control (dose: 648.0 micrograms/kg/injection, schedule: Q04DX003 (ip), vehicle: saline); 183 % of control and 203 % of control (dose: 1080.0 micrograms/kg/injection, schedule: Q04DX003 (ip), vehicle: saline). Where the note is “dose: 1800.0 micrograms/kg/injection, schedule: Q04DX003 (ip), vehicle: saline”, the T/C was 184 % of control and 203 % of control.
Take `CCCCn1c(=S)[nH]c2ccccc2c1=O`: the T/C by setting is: under setting [1], 98 % of control; under setting [2], 96 % of control; under setting [3], 98 % of control.
Consider `CN(C)CCCN=Cc1cc(Cl)ccc1O.CN(C)CCCN=Cc1cc(Cl)ccc1O.[Ni+2]`, for which the T/C reads like this: under setting [4], 122 % of control; under setting [5], 116 % of control; under setting [7], 111 % of control.
In the case of `CCCCCCCCOc1ccc(C(=O)c2ccccc2)c(O)c1`, the T/C by setting is: (dose: 6.0 mg/kg/injection, schedule: Q01DX009 (ip), vehicle: Klucel (hydroxypropylcellulose) (HPC)) 92 % of control; (dose: 100.0 mg/kg/injection, schedule: Q04DX003 (ip), vehicle: Klucel (hydroxypropylcellulose) (HPC)) 91 % of control; (dose: 200.0 mg/kg/injection, schedule: Q04DX003 (ip), vehicle: Klucel (hydroxypropylcellulose) (HPC)) 93 % of control.

The record behind these values is PubChem BioAssay AID192 (DTP/NCI, 2004).
